PubChem BioAssay (NCI)
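Values below derive from 48-hour exposures of cells grown in 96-well plates, with endpoints linearly interpolated between the two concentrations bracketing the appropriate inhibition level. At the GI50, growth is halved. TGI is the concentration that stops growth completely.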

Assays:
Assay in all cases: growth of human tumour cells (NCI), 48 h
786-0 renal = test system: 786-0 renal
A498 renal = test system: A498 renal
A549 NSCLC = test system: A549 NSCLC
ACHN renal = test system: ACHN renal
BT-549 breast = test system: BT-549 breast
CAKI-1 renal = test system: CAKI-1 renal
CCRF-CEM leukemia = test system: CCRF-CEM leukemia
COLO 205 colon = test system: COLO 205 colon
DU-145 prostate = test system: DU-145 prostate
EKVX NSCLC = test system: EKVX NSCLC
HCC-2998 colon = test system: HCC-2998 colon
HCT-116 colon = test system: HCT-116 colon
HCT-15 colon = test system: HCT-15 colon
HL-60(TB) leukemia = test system: HL-60(TB) leukemia
HOP-62 NSCLC = test system: HOP-62 NSCLC
HOP-92 NSCLC = test system: HOP-92 NSCLC
HS 578T breast = test system: HS 578T breast
HT29 colon = test system: HT29 colon
IGROV1 ovarian = test system: IGROV1 ovarian
K-562 leukemia = test system: K-562 leukemia
KM12 colon = test system: KM12 colon
M14 melanoma = test system: M14 melanoma
MALME-3M melanoma = test system: MALME-3M melanoma
MCF7 breast = test system: MCF7 breast
MDA-MB-231 breast = test system: MDA-MB-231 breast
MDA-MB-435 = test system: MDA-MB-435
MDA-MB-468 breast = test system: MDA-MB-468 breast
MOLT-4 leukemia = test system: MOLT-4 leukemia
NCI-H226 lung = test system: NCI-H226 lung
NCI-H23 lung = test system: NCI-H23 lung
NCI-H460 lung = test system: NCI-H460 lung
NCI-H522 lung = test system: NCI-H522 lung
OVCAR-3 ovarian = test system: OVCAR-3 ovarian
OVCAR-4 ovarian = test system: OVCAR-4 ovarian
OVCAR-5 ovarian = test system: OVCAR-5 ovarian
OVCAR-8 ovarian = test system: OVCAR-8 ovarian
PC-3 prostate = test system: PC-3 prostate
RPMI-8226 leukemia = test system: RPMI-8226 leukemia
RXF 393 renal = test system: RXF 393 renal
SF-268 CNS = test system: SF-268 CNS
SF-295 CNS = test system: SF-295 CNS
SF-539 CNS = test system: SF-539 CNS
SK-MEL-2 melanoma = test system: SK-MEL-2 melanoma
SK-MEL-28 melanoma = test system: SK-MEL-28 melanoma
SK-MEL-5 melanoma = test system: SK-MEL-5 melanoma
SK-OV-3 ovarian = test system: SK-OV-3 ovarian
SN12C renal = test system: SN12C renal
SNB-19 CNS = test system: SNB-19 CNS
SNB-75 CNS = test system: SNB-75 CNS
SR leukemia = test system: SR leukemia
SW-620 colon = test system: SW-620 colon
T-47D breast = test system: T-47D breast
TK-10 renal = test system: TK-10 renal
U251 CNS = test system: U251 CNS
UACC-257 melanoma = test system: UACC-257 melanoma
UACC-62 melanoma = test system: UACC-62 melanoma
UO-31 renal = test system: UO-31 renal

In the case of N#Cc1c(-c2ccc(Cl)cc2)nc2n[nH]c(-c3ccc(Cl)cc3)c2c1-c1ccc(C(F)(F)F)cc1, the GI50 (786-0 renal) is reported as 2570 nM, the TGI (786-0 renal) is reported as 7.55 µM and the GI50 (A498 renal) is reported as 3.1 µM. It also gave a TGI (A498 renal) of 8.71 µM, a GI50 (A549 NSCLC) of 3.45 µM and a TGI (A549 NSCLC) of 12 µM. For the same compound, the GI50 (ACHN renal) was 2850 nM, the TGI (ACHN renal) was 9.97 µM and the GI50 (BT-549 breast) was 2170 nM. For the same compound, the TGI (BT-549 breast) was 4.78 µM, the GI50 (CAKI-1 renal) was 2000 nM and the TGI (CAKI-1 renal) was 7.2 µM. For the same compound, the GI50 (CCRF-CEM leukemia) was 2180 nM, the TGI (CCRF-CEM leukemia) was 6.57 µM and the GI50 (COLO 205 colon) was 1710 nM. It also gave a TGI (COLO 205 colon) of 3.24 µM, a GI50 (DU-145 prostate) of 3.6 µM and a TGI (DU-145 prostate) of 15.9 µM. For the same compound, the GI50 (EKVX NSCLC) was 2710 nM, the TGI (EKVX NSCLC) was 11.4 µM and the GI50 (HCC-2998 colon) was 2290 nM. The TGI (HCC-2998 colon) was 5.36 µM, the GI50 (HCT-116 colon) was 1610 nM and the TGI (HCT-116 colon) was 3.74 µM. For the same compound, the GI50 (HCT-15 colon) was 2570 nM, the TGI (HCT-15 colon) was 10.4 µM and the GI50 (HL-60(TB) leukemia) was 1790 nM. For the same compound, the TGI (HL-60(TB) leukemia) was 4.79 µM, the GI50 (HOP-62 NSCLC) was 3.06 µM and the TGI (HOP-62 NSCLC) was 9.84 µM. For the same compound, the GI50 (HOP-92 NSCLC) was 1570 nM, the TGI (HOP-92 NSCLC) was 4.37 µM and the GI50 (HS 578T breast) was 2230 nM. For the same compound, the TGI (HS 578T breast) was 7.18 µM, the GI50 (HT29 colon) was 2770 nM and the TGI (HT29 colon) was 10.9 µM. For the same compound, the GI50 (IGROV1 ovarian) was 1920 nM, the TGI (IGROV1 ovarian) was 6.49 µM and the GI50 (K-562 leukemia) was 2090 nM. The TGI (K-562 leukemia) was 5.91 µM, the GI50 (KM12 colon) was 2490 nM and the TGI (KM12 colon) was 8.32 µM. It also gave a GI50 (M14 melanoma) of 2170 nM, a TGI (M14 melanoma) of 5.53 µM and a GI50 (MALME-3M melanoma) of 1980 nM. For the same compound, the TGI (MALME-3M melanoma) was 4.86 µM, the GI50 (MCF7 breast) was 2430 nM and the TGI (MCF7 breast) was 10.8 µM. It also gave a GI50 (MDA-MB-231 breast) of 2120 nM, a TGI (MDA-MB-231 breast) of 4.64 µM and a GI50 (MDA-MB-435) of 2100 nM. It also gave a TGI (MDA-MB-435) of 4.86 µM, a GI50 (MDA-MB-468 breast) of 2590 nM and a TGI (MDA-MB-468 breast) of 9.55 µM. It also gave a GI50 (MOLT-4 leukemia) of 1720 nM, a TGI (MOLT-4 leukemia) of 6.12 µM and a GI50 (NCI-H226 lung) of 2370 nM. For the same compound, the TGI (NCI-H226 lung) was 8.97 µM, the GI50 (NCI-H23 lung) was 2240 nM and the TGI (NCI-H23 lung) was 7.68 µM. For the same compound, the GI50 (NCI-H460 lung) was 2080 nM, the TGI (NCI-H460 lung) was 4.57 µM and the GI50 (NCI-H522 lung) was 2030 nM. The TGI (NCI-H522 lung) was 5.68 µM, the GI50 (OVCAR-3 ovarian) was 2190 nM and the TGI (OVCAR-3 ovarian) was 5.07 µM. The GI50 (OVCAR-4 ovarian) was 2500 nM, the TGI (OVCAR-4 ovarian) was 8.38 µM and the GI50 (OVCAR-5 ovarian) was 2160 nM. It also gave a TGI (OVCAR-5 ovarian) of 5.22 µM, a GI50 (OVCAR-8 ovarian) of 3.23 µM and a TGI (OVCAR-8 ovarian) of 12.5 µM. For the same compound, the GI50 (PC-3 prostate) was 2250 nM, the TGI (PC-3 prostate) was 9.31 µM and the GI50 (RPMI-8226 leukemia) was 1930 nM. The TGI (RPMI-8226 leukemia) was 6.27 µM, the GI50 (RXF 393 renal) was 2640 nM and the TGI (RXF 393 renal) was 9.54 µM. The GI50 (SF-268 CNS) was 2920 nM, the TGI (SF-268 CNS) was 11.5 µM and the GI50 (SF-295 CNS) was 2620 nM. It also gave a TGI (SF-295 CNS) of 8.3 µM, a GI50 (SF-539 CNS) of 1850 nM and a TGI (SF-539 CNS) of 3.76 µM. The GI50 (SK-MEL-2 melanoma) was 1720 nM, the TGI (SK-MEL-2 melanoma) was 3.26 µM and the GI50 (SK-MEL-28 melanoma) was 2680 nM. It also gave a TGI (SK-MEL-28 melanoma) of 8.7 µM, a GI50 (SK-MEL-5 melanoma) of 1920 nM and a TGI (SK-MEL-5 melanoma) of 3.79 µM. For the same compound, the GI50 (SK-OV-3 ovarian) was 3.03 µM, the TGI (SK-OV-3 ovarian) was 10.2 µM and the GI50 (SN12C renal) was 2590 nM. For the same compound, the TGI (SN12C renal) was 8.35 µM, the GI50 (SNB-19 CNS) was 3.38 µM and the TGI (SNB-19 CNS) was 14.7 µM. For the same compound, the GI50 (SNB-75 CNS) was 1750 nM, the TGI (SNB-75 CNS) was 6.59 µM and the GI50 (SR leukemia) was 1690 nM. The TGI (SR leukemia) was 4.42 µM, the GI50 (SW-620 colon) was 2760 nM and the TGI (SW-620 colon) was 10.8 µM. The GI50 (T-47D breast) was 2530 nM, the TGI (T-47D breast) was 8.38 µM and the GI50 (TK-10 renal) was 3.99 µM. It also gave a TGI (TK-10 renal) of 15.6 µM, a GI50 (U251 CNS) of 3.03 µM and a TGI (U251 CNS) of 11.2 µM. The GI50 (UACC-257 melanoma) was 2720 nM, the TGI (UACC-257 melanoma) was 8 µM and the GI50 (UACC-62 melanoma) was 1870 nM. It also gave a TGI (UACC-62 melanoma) of 5.57 µM, a GI50 (UO-31 renal) of 2100 nM and a TGI (UO-31 renal) of 8.61 µM.
